These results are taken from article PMC7838546, “A Thermostable, Modified Cathelicidin-Derived Peptide With Enhanced Membrane-Active Activity Against Salmonella enterica serovar Typhimurium” (Frontiers in Microbiology, 2021).

Experiment [1] concerns S. enterica serovar 4,5,12:i:- H1-024 (clinical isolate). The class given is cell-based, Salmonella enterica serovar 4,5,12:i:-. Conditions: H1-024, rectal swab, resistant Amc, Amp, Ctx, C, NA, SxT, intermediate Cp; for MIC: broth microdilution, 37°C, 24 h. The method, then: (§1) Salmonella enterica serovar Typhimurium ATCC 13311, 24 drug-resistant foodborne and eleven drug-resistant human borne S. enterica serovar Typhimurium and 4,5,12:i:- isolates (Table 1) were used as test microorganisms. They were previously isolated for molecular characterization in 2014 and kindly provided by Dr. Soraya Chaturongakul (Mahidol University, Thailand) ([Huoy et al., 2014]). All bacteria were cultured in Tryptic Soy Broth (TSB) and incubated at 37°C for 18 h. Mueller Hinton Broth (MHB) was then used to wash and rinse the bacteria. The bacterial suspensions were then diluted to obtain concentrations of 10^7 CFU/ml for inoculations.
(§2) A modified version of the National Committee for Clinical Laboratory Standards (NCCLS) broth microdilution method ([Steinberg et al., 1997]) was used to determine the minimum inhibitory concentrations (MICs) of peptide and compared to that of nisin. Fifty microliters of two-fold serial dilutions of each peptide [0.98–250 μg/ml in 0.01% (v/v) acetic acid and 0.2% (w/v) bovine serum albumin (BSA, Sigma-Aldrich, MO, United States)], were incubated with 50 μl of bacterial suspensions (approximately 10^7 CFU/ml) at 37°C for 24 h in a shaking incubator. MICs were taken as the lowest concentration of peptide at which growth was inhibited as observed by visual inspection. Bacterial cultures without peptides and uncultured broth were used as positive and negative controls, respectively. Minimal bactericidal concentrations (MBCs) were determined using a colony count assay ([Clinical Laboratory Standards Institute [CLSI], 2015]). Fifty microliters of samples from each non-turbid well in the MIC determination experiment was plated on Mueller Hinton Agar (MHA) and colonies were observed after overnight incubation at 37°C. MBCs were designated as the least concentration showing no colony growth on the plate. All of experiments were performed in triplicate.
(Broth dilution looks for growth in wells or tubes with falling amounts of substance.)

For experiment [2], the system named is S. enterica serovar 4,5,12:i:- H1-100 (clinical isolate). The experiment is classed as cell-based, Salmonella enterica serovar 4,5,12:i:-. Conditions: H1-100, stool, resistant Amp, C, Cp, T, SxT, intermediate Amc, NA; for MIC: broth microdilution, 37°C, 24 h. The method, then: as §1, §2
For experiment [3], the system named is S. enterica serovar 4,5,12:i:- H1-102 (clinical isolate). The class given is cell-based, Salmonella enterica serovar 4,5,12:i:-. Conditions: H1-102, stool, resistant Amp, C, T, SxT, intermediate Amc; for MIC: broth microdilution, 37°C, 24 h. The method, then: as §1, §2
Experiment [4] deals with S. enterica serovar 4,5,12:i:- H2-009 (foodborne isolate). The experiment is classed as cell-based, Salmonella enterica serovar 4,5,12:i:-. Conditions: H2-009, pork fat, resistant Amp, C, T, broth microdilution, 37°C, 24 h. On the procedure:
as §1, §2

In experiment [5] the test system is S. enterica serovar 4,5,12:i:- H2-010 (foodborne isolate). The class given is cell-based, Salmonella enterica serovar 4,5,12:i:-. The following applies: H2-010, pork skin, resistant Amp, C, T, broth microdilution, 37°C, 24 h. The method, then:
as §1, §2

Experiment [6] has as its system S. enterica serovar 4,5,12:i:- H2-038 (foodborne isolate). The experiment is classed as cell-based, Salmonella enterica serovar 4,5,12:i:-. Conditions: H2-038, pork kidney, resistant Amp, T; for MIC: broth microdilution, 37°C, 24 h. On the procedure:
as §1, §2

For experiment [7], the system named is S. enterica serovar 4,5,12:i:- H2-039 (foodborne isolate). The class given is cell-based, Salmonella enterica serovar 4,5,12:i:-. The following applies: H2-039, pork intestine, resistant Amp, T; for MIC: broth microdilution, 37°C, 24 h. The method, then: as §1, §2
The test system of experiment [8] is S. enterica serovar 4,5,12:i:- H2-042 (foodborne isolate). The class given is cell-based, Salmonella enterica serovar 4,5,12:i:-. The following applies: H2-042, pork intestine, resistant Amp, C, T, SxT, intermediate Cp; for MIC: broth microdilution, 37°C, 24 h. The method, then: as §1, §2
Experiment [9] relates to S. enterica serovar 4,5,12:i:- H2-043 (foodborne isolate). The class given is cell-based, Salmonella enterica serovar 4,5,12:i:-. The following applies: H2-043, pork heart, resistant Amp, T, intermediate Cp; for MIC: broth microdilution, 37°C, 24 h. On the procedure: as §1, §2
Experiment [10] relates to S. enterica serovar 4,5,12:i:- H2-044 (foodborne isolate). The class given is cell-based, Salmonella enterica serovar 4,5,12:i:-. The following applies: H2-044, pork kidney, resistant Amp, C, T, SxT, intermediate Cp; for MIC: broth microdilution, 37°C, 24 h. On the procedure: as §1, §2
The subject of experiment [11] is S. enterica serovar 4,5,12:i:- H2-045 (foodborne isolate). The experiment is classed as cell-based, Salmonella enterica serovar 4,5,12:i:-. The following applies: H2-045, pork intestine, resistant Amp, T, intermediate Cp; for MIC: broth microdilution, 37°C, 24 h. On the procedure: as §1, §2
The subject of experiment [12] is S. enterica serovar 4,5,12:i:- H2-049 (foodborne isolate). The experiment is classed as cell-based, Salmonella enterica serovar 4,5,12:i:-. The following applies: H2-049, pork intestine, resistant Amp, T, broth microdilution, 37°C, 24 h. The method, then:
as §1, §2

The subject of experiment [13] is S. enterica serovar 4,5,12:i:- H2-054 (foodborne isolate). The experiment is classed as cell-based, Salmonella enterica serovar 4,5,12:i:-. The following applies: H2-054, pork intestine, resistant Amp, T; for MIC: broth microdilution, 37°C, 24 h. On the procedure:
as §1, §2

The subject of experiment [14] is S. enterica serovar 4,5,12:i:- H2-070 (foodborne isolate). The experiment is classed as cell-based, Salmonella enterica serovar 4,5,12:i:-. Conditions: H2-070, pork liver, resistant Amp, Ctx, C, T, SxT, intermediate Cp; for MIC: broth microdilution, 37°C, 24 h. The method, then:
as §1, §2

The subject of experiment [15] is S. enterica serovar 4,5,12:i:- H2-075 (foodborne isolate). The class given is cell-based, Salmonella enterica serovar 4,5,12:i:-. Conditions: H2-075, pork intestine, resistant Amp, T; for MIC: broth microdilution, 37°C, 24 h. The method, then: as §1, §2
Experiment [16] has as its system S. enterica serovar Typhimurium H1-011 (clinical isolate). The class given is cell-based, Salmonella enterica serovar Typhimurium. The following applies: H1-011, stool, resistant Amp, T, intermediate Amc, Ctx, Cp, NA; for MIC: broth microdilution, 37°C, 24 h. The method, then:
as §1, §2

Ends that are not written are not given here.

KIAKRIWKILRR-NH2 [P7]: the MIC in experiment [1] is 3.91 (3.91) μg/ml; in experiment [2] it was 7.81 (7.81) μg/ml; in experiment [3] it was 7.81 (7.81) μg/ml; in [4], 3.91 µg/mL; in experiment [5], 3.91 µg/mL; in experiment [6], 7.81 (7.81) μg/ml. The MIC in experiment [7] is 3.91 (3.91) μg/ml; in experiment [8], 7.81 (7.81) μg/ml; in experiment [9] it was 7.81 (7.81) μg/ml; in experiment [10], 7.81 (7.81) μg/ml; in experiment [11], 7.81 (7.81) μg/ml; in experiment [12], 3.91 µg/mL. For the same substance, the MIC in experiment [13], in [14], in experiment [15] and in experiment [16] was 7.81 (7.81) μg/ml each time. In addition, the MBC is listed as 3.91 (3.91) μg/ml in experiment [1] (colony count on MHA); 7.81 (7.81) μg/ml in experiment [2] (colony count on MHA); 7.81 (7.81) μg/ml in experiment [3] (colony count on MHA); 7.81 (7.81) μg/ml in [6] (colony count on MHA); 3.91 (3.91) μg/ml in experiment [7] (colony count on MHA); 7.81 (7.81) μg/ml in experiment [8] (colony count on MHA). Further, the MBC in experiment [9] (colony count on MHA), in [10] (colony count on MHA), in [11] (colony count on MHA), in experiment [13] (colony count on MHA), in experiment [14] (colony count on MHA) and in [15] (colony count on MHA) was 7.81 (7.81) μg/ml in each case. In experiment [16] (colony count on MHA), the MBC is recorded as 7.81 (7.81) μg/ml.

Regarding “Nisin: authorized food preservative peptide, binds lipid II and forms membrane pores (ITSISLCTPGCKTGALMGCNMKTATCHCSIHVSK; cysteine pairing not given here; also: lantibiotic nisin-A; UniProt P13068 24-57, looked up)”, the MIC in experiment [1], in experiment [2], in experiment [3], in [4], in [5] and in experiment [6] was greater than 1000 µg/mL each time. Besides, the MIC in experiment [7], in [8], in experiment [9], in [10], in experiment [11] and in experiment [12] was greater than 1000 µg/mL in each case. Further, the MIC in experiment [13], in experiment [14], in [15] and in [16] was greater than 1000 µg/mL throughout.
